Laboratory results as given in patent publication US9167822B2, “Antifungal compositions” (DSM IP ASSETS B.V., priority 2012, dated 2015).
Where “and” joins values, the source holds several entries; their conditions need not be identical. Equal values may be shown once.

Legend:
Botrytis cinerea [1] = test: Treatment of strawberries: wounded, dipped in antifungal composition, then inoculated with Botrytis cinerea; type: in vivo; conditions: 1000 ppm bixafen or both
Experimental: (§1) Ten fresh, organic strawberries were used per treatment. Each strawberry was wounded with a 0.5 mm long cut and each wound was inoculated with 10 μl of a Botrytis cinerea suspension containing 1×10^5 of spores/ml. […] The pH of the compositions was 4. A composition without natamycin or bixafen was used as control. The treated strawberries were incubated in a closed box in the dark at 20° C.
(§2) During incubation, mould growth on the strawberries was assessed in a twofold manner: (i) the number of moulded strawberries per total of 10 strawberries was counted; and (ii) the antifungal activity (in %) of the individual and combined active ingredients was determined by calculating the reduction in mould growth observed on the strawberries treated with the antifungal composition in comparison to the mould growth on the strawberries treated with the control composition. The expected antifungal activity (E in %) of the combined antifungal composition comprising both active ingredients was calculated according to the Colby equation (Colby, 1967): E=X+Y−[(X·Y)/100] wherein X and Y are the observed antifungal activities (in %) of the individual active ingredients X and Y, respectively. If the observed antifungal activity (O in %) of the combination exceeds the expected antifungal activity (E in %) of the combination and the synergy factor O/E is thus >1.0, the combined application of the active ingredients leads to a synergistic antifungal effect.
After treatment, each strawberry was inoculated with 10 μl of a Botrytis cinerea suspension containing 1×10^5 of spores/ml. The treated strawberries were assessed on mould growth according to the two methods described in Example 3.

Botrytis cinerea [2] = test: Treatment of strawberries: wounded, inoculated with Botrytis cinerea, then dipped in antifungal composition; type: in vivo
Experimental: as §1, §2
The treated strawberries were assessed on mould growth. The antifungal activity (in %) of the individual and combined active ingredients was determined according to the method described in Example 3. […]

Penicillium italicum [3] = test: In vitro antifungal activity, 96-well microtiter plates; type: cell-based; conditions: 25° C., day 10, 1.25 ppm natamycin, 25 ppm bixafen or both
Experimental: Subsequently, 100 μl of a Botrytis cinerea suspension prepared in PCB medium was used to inoculated each well with 2.5×10^3 spores/ml.
After incubation of the microtiter plates at 25° C., the in vitro antifungal activity (%) of the individual active ingredients was assessed by calculating the reduction in mould growth observed in the presence of the active ingredient in comparison to the mould growth observed in the absence of the active ingredient. The expected antifungal activity (E in %) of the active ingredient combination was calculated according to the Colby equation (Colby, 1967): E=X+Y−[(X·Y)/100] wherein X and Y are the observed antifungal activities (in %) of the individual active ingredients X and Y, respectively. If the observed antifungal activity (O in %) of the combination exceeds the expected antifungal activity (E in %) of the combination and the resulting synergy factor O/E is thus >1.0, the combined application of the active ingredients leads to a synergistic antifungal effect.
Furthermore, Penicillium italicum was used for inoculation.

Penicillium italicum [4] = test: Treatment of apples wounded and inoculated with Penicillium italicum, then dipped; type: in vivo; conditions: for Number of moulded apples/total number of 10 apples: 500 ppm natamycin; for Number of moulded apples per total of 10 apples: 250 ppm natamycin
Experimental: Ten fresh, organic apples were used per treatment. Each apple was wounded once using a cork borer according to the method described by de Lapeyre de Bellaire and Dubois (1987). Subsequently, each wound was inoculated with 10 μl of a Penicillium italicum suspension containing 1×10^6 of spores/ml. […] The pH of the compositions was 4. A composition without natamycin or bixafen was used as control. The treated apples were incubated in a closed box in the dark at 20° C. […]
During incubation, the treated apples were assessed on mould growth according to the two methods described in Example 3. […]

Penicillium italicum [5] = test: Treatment of mandarins wounded and inoculated with Penicillium italicum, then dipped; type: in vivo
Experimental: Ten fresh, organic mandarins were used per treatment. The peel of each mandarin was wounded once using a cork borer according to the method described by de Lapeyre de Bellaire and Dubois (1987). Subsequently, each wound was inoculated with 10 μl of a Penicillium italicum suspension containing 1×10^5 of spores/ml. […] The pH of the compositions was 4.
The treated mandarins were incubated in a closed box in the dark at 20° C. and assessed on mould growth during incubation.

[6] = day 3, 500 ppm natamycin, 2000 ppm bixafen or both
[7] = day 4, 250 ppm natamycin, 250 ppm bixafen or both
[8] = day 4, 250 ppm natamycin, 500 ppm bixafen or both
[9] = day 4, 500 ppm natamycin, 2000 ppm bixafen or both
[10] = day 6, 250 ppm natamycin, 250 ppm bixafen or both
[11] = day 6, 250 ppm natamycin, 500 ppm bixafen or both
[12] = day 6, 500 ppm natamycin, 2000 ppm bixafen or both
[13] = day 7, 250 ppm natamycin, 250 ppm bixafen or both
[14] = day 7, 250 ppm natamycin, 500 ppm bixafen or both
[15] = day 9, 250 ppm natamycin, 500 ppm bixafen or both
[16] = day 9, 500 ppm natamycin, 2000 ppm bixafen or both
[17] = day 6, 500 ppm natamycin, 1000 ppm bixafen or both
[18] = day 9, 500 ppm natamycin, 1000 ppm bixafen or both
[19] = day 11, 500 ppm natamycin, 2000 ppm bixafen or both
[20] = day 14, 500 ppm natamycin, 1000 ppm bixafen or both
[21] = day 14, 500 ppm natamycin, 2000 ppm bixafen or both

Cn1cc(C(=O)Nc2ccc(F)cc2-c2ccc(Cl)c(Cl)c2)c(C(F)F)n1 [Bixafen, bixafen]
Observed antifungal activity O (%) (Botrytis cinerea [1]; day 3, 500 ppm natamycin): 72%
Number of moulded wounds/total number of 10 wounds (Botrytis cinerea [1]; day 5, 20° C., 250 ppm natamycin): 8 and 8/10
Observed antifungal activity O (%) (Botrytis cinerea [1]; day 5, 500 ppm natamycin): 55%
Observed antifungal activity O (%) (Botrytis cinerea [1]; day 6, 500 ppm natamycin): 35%
Number of moulded strawberries/total number of 10 strawberries (Botrytis cinerea [2]; Day 3, 20° C., 250 ppm natamycin, 250 ppm bixafen or both): 9 and 9/10
Number of moulded strawberries/total number of 10 strawberries (Botrytis cinerea [2]; Day 3, 20° C., 500 ppm natamycin, 2000 ppm bixafen or both): 8 and 8/10
Number of moulded strawberries/total number of 10 strawberries (Botrytis cinerea [2]; Day 4, 20° C., 250 ppm natamycin, 250 ppm bixafen or both): 9 and 9/10
Number of moulded strawberries/total number of 10 strawberries (Botrytis cinerea [2]; Day 4, 20° C., 500 ppm natamycin, 2000 ppm bixafen or both): 9 and 9/10
Number of moulded strawberries/total number of 10 strawberries (Botrytis cinerea [2]; Day 5, 20° C., 250 ppm natamycin, 250 ppm bixafen or both): 10 and 10/10
Number of moulded strawberries/total number of 10 strawberries (Botrytis cinerea [2]; Day 5-6, 20° C., 500 ppm natamycin, 2000 ppm bixafen or both): 10 and 10/10
Observed antifungal activity O (%) (Botrytis cinerea [2]; [6]): 62%
Observed antifungal activity O (%) (Botrytis cinerea [2]; [7]): 47%
Observed antifungal activity O (%) (Botrytis cinerea [2]; [8]): 65%
Observed antifungal activity O (%) (Botrytis cinerea [2]; [9]): 55%
Observed antifungal activity O (%) (Botrytis cinerea [2]; day 5, 250 ppm natamycin, 250 ppm bixafen or both): 33%
Observed antifungal activity O (%) (Botrytis cinerea [2]; day 5, 500 ppm natamycin, 2000 ppm bixafen or both): 34%
Observed antifungal activity O (%) (Botrytis cinerea [2]; [10]): 23%
Observed antifungal activity O (%) (Botrytis cinerea [2]; [11]): 33%
Observed antifungal activity O (%) (Botrytis cinerea [2]; [12]): 27%
Observed antifungal activity O (%) (Botrytis cinerea [2]; [13]): 10%
Observed antifungal activity O (%) (Botrytis cinerea [2]; [14]): 12%
Observed antifungal activity O (%) (Botrytis cinerea [2]; day 7, 500 ppm natamycin, 2000 ppm bixafen or both): 12%
Observed antifungal activity O (%) (Botrytis cinerea [2]; [15]): 5%
Observed antifungal activity O (%) (Botrytis cinerea [2]; [16]): 3%
Observed antifungal activity O (%) (Botrytis cinerea [2]; day 10, 250 ppm natamycin, 500 ppm bixafen or both): 0%
Observed antifungal activity O (%) (Penicillium italicum [3]): 50%
Number of moulded apples/total number of 10 apples (Penicillium italicum [4]; Day 3, 20° C., 1000 ppm bixafen or both): 6 and 6/10
Number of moulded apples/total number of 10 apples (Penicillium italicum [4]; Day 3-4, 20° C., 2000 ppm bixafen or both): 5/10
Number of moulded apples/total number of 10 apples (Penicillium italicum [4]; Day 4, 20° C., 1000 ppm bixafen or both): 6 and 6/10
Number of moulded apples per total of 10 apples (Penicillium italicum [4]; Day 6, 20° C., 500 ppm bixafen or both): 10 and 10/10
Number of moulded apples/total number of 10 apples (Penicillium italicum [4]; Day 6, 20° C., 1000 ppm bixafen or both): 8 and 8/10
Number of moulded apples/total number of 10 apples (Penicillium italicum [4]; Day 6, 20° C., 2000 ppm bixafen or both): 8 and 8/10
Number of moulded apples per total of 10 apples (Penicillium italicum [4]; Day 6-9, 20° C., 250 ppm bixafen or both): all and 10/10
Number of moulded apples per total of 10 apples (Penicillium italicum [4]; Day 7, 20° C., 500 ppm bixafen or both): 10 and 10/10
Number of moulded apples/total number of 10 apples (Penicillium italicum [4]; Day 7, 20° C., 1000 ppm bixafen or both): 9 and 9/10
Number of moulded apples/total number of 10 apples (Penicillium italicum [4]; Day 7, 20° C., 2000 ppm bixafen or both): 8 and 8/10
Number of moulded apples per total of 10 apples (Penicillium italicum [4]; Day 9, 20° C., 500 ppm bixafen or both): 10 and 10/10
Number of moulded apples/total number of 10 apples (Penicillium italicum [4]; Day 9-14, 20° C., 1000 ppm bixafen or both): all and 10/10
Number of moulded apples/total number of 10 apples (Penicillium italicum [4]; Day 9-14, 20° C., 2000 ppm bixafen or both): all and 10/10
Number of moulded apples per total of 10 apples (Penicillium italicum [4]; Day 11-15, 20° C., 250 ppm bixafen or both): all and 10/10
Observed antifungal activity O (%) (Penicillium italicum [4]; day 3, 500 ppm natamycin, 1000 ppm bixafen or both): 47%
Observed antifungal activity O (%) (Penicillium italicum [4]; [6]): 60%
Observed antifungal activity O (%) (Penicillium italicum [4]; day 6, 250 ppm natamycin, 250 ppm bixafen or both (bixafen 500 ppm)): 17%
Observed antifungal activity O (%) (Penicillium italicum [4]; [11]): 33%
Observed antifungal activity O (%) (Penicillium italicum [4]; [17]): 44%
Observed antifungal activity O (%) (Penicillium italicum [4]; [12]): 39%
Observed antifungal activity O (%) (Penicillium italicum [4]; [14]): 39%
Observed antifungal activity O (%) (Penicillium italicum [4]; day 9, 250 ppm natamycin, 250 ppm bixafen or both (bixafen 500 ppm)): 13%
Observed antifungal activity O (%) (Penicillium italicum [4]; [15]): 17%
Observed antifungal activity O (%) (Penicillium italicum [4]; [18]): 38%
Observed antifungal activity O (%) (Penicillium italicum [4]; [16]): 29%
Observed antifungal activity O (%) (Penicillium italicum [4]; day 11, 250 ppm natamycin, 250 ppm bixafen or both (bixafen 500 ppm)): 0%
Observed antifungal activity O (%) (Penicillium italicum [4]; day 11, 500 ppm natamycin, 1000 ppm bixafen or both): 30%
Observed antifungal activity O (%) (Penicillium italicum [4]; [19]): 30%
Observed antifungal activity O (%) (Penicillium italicum [4]; day 14, 250 ppm natamycin, 250 ppm bixafen or both (bixafen 500 ppm)): 6%
Observed antifungal activity O (%) (Penicillium italicum [4]; [20]): 21%
Observed antifungal activity O (%) (Penicillium italicum [4]; [21]): 36%
Observed antifungal activity O (%) (Penicillium italicum [5]; day 3, 250 ppm natamycin, 250 ppm bixafen or both): 65%
Observed antifungal activity O (%) (Penicillium italicum [5]; [7]): 27%
Observed antifungal activity O (%) (Penicillium italicum [5]; [8]): 40%
Observed antifungal activity O (%) (Penicillium italicum [5]; day 4, 500 ppm natamycin, 1000 ppm bixafen or both): 37%
Observed antifungal activity O (%) (Penicillium italicum [5]; [9]): 47%
Observed antifungal activity O (%) (Penicillium italicum [5]; [10]): 28%
Observed antifungal activity O (%) (Penicillium italicum [5]; [11]): 26%
Observed antifungal activity O (%) (Penicillium italicum [5]; [17]): 22%
Observed antifungal activity O (%) (Penicillium italicum [5]; [12]): 32%
Observed antifungal activity O (%) (Penicillium italicum [5]; [13]): 10%
Observed antifungal activity O (%) (Penicillium italicum [5]; [14]): 10%
Observed antifungal activity O (%) (Penicillium italicum [5]; day 7, 500 ppm natamycin, 1000 ppm bixafen or both): 6%
Observed antifungal activity O (%) (Penicillium italicum [5]; day 9, 250 ppm natamycin, 250 ppm bixafen or both): 0%
Observed antifungal activity O (%) (Penicillium italicum [5]; [15]): 0%
Observed antifungal activity O (%) (Penicillium italicum [5]; [18]): 2%
Observed antifungal activity O (%) (Penicillium italicum [5]; [16]): 7%
Observed antifungal activity O (%) (Penicillium italicum [5]; day 11, 250 ppm natamycin, 500 ppm bixafen or both): 0%
Observed antifungal activity O (%) (Penicillium italicum [5]; [19]): 9%
Observed antifungal activity O (%) (Penicillium italicum [5]; day 13, 250 ppm natamycin, 500 ppm bixafen or both): 0%
Observed antifungal activity O (%) (Penicillium italicum [5]; [20]): 0%
Observed antifungal activity O (%) (Penicillium italicum [5]; [21]): 3%
Observed antifungal activity O (%) (Penicillium italicum [5]; day 15, 250 ppm natamycin, 500 ppm bixafen or both): 0%
Observed antifungal activity O (%) (Penicillium italicum [5]; day 15, 500 ppm natamycin, 1000 ppm bixafen or both): 0%
Observed antifungal activity O (%) (Penicillium italicum [5]; day 15, 500 ppm natamycin, 2000 ppm bixafen or both): 0%
